# Measured values published in patent publication US10214492B2, “Heterocyclic inhibitors of MCT4” (Vettore, LLC, priority 2016, dated 2019).
# Read-outs that look alike come from different tables or passages of the source.
# Columns and labels:
# [1] = Metabolic stability in human liver microsomes (in vitro t1/2); type: in vitro ADME; settings: for half-life at 2 µM: human liver microsomes 0.5 mg/mL, 2 μM compound, read-out: Human microsome t1/2, min; for Human microsome % 60 min: human liver microsomes
# Procedure: (§1) The following are assays that may be used to evaluate the metabolic stability of compounds of Formula (I) in human, rat, or mouse microsomes. The assays follow a common procedure recited below. 1. […] Two separated experiments were performed as follows. a) With NADPH: 10 μL of 20 mg/mL liver microsomes and 40 μL of 10 mM NADPH were added to the incubations. […] The final concentration of microsomes was 0.5 mg/mL. 3. The reaction was started with the addition of 4 μL of 200 μM control compound or test compound solutions. Verapamil was used as positive control in this study. The final concentration of test compound or control compound was 2 μM. 4. Aliquots of 50 μL were taken from the reaction solution at 0, 15, 30, 45 and 60 min. […] Samples were centrifuged at 3,220 g for 40 minutes. A 90 μL aliquot of the supernatant was mixed with 90 μL of ultra-pure H2O and then used for LC-MS/MS analysis. 5. Data analysis. All calculations were carried out using Microsoft Excel. Peak areas were determined from extracted ion chromatograms. The slope value, k, was determined by linear regression of the natural logarithm of the remaining percentage of the parent drug vs. incubation time curve. The in vitro half-life (in vitro t1/2) was determined from the slope value: in vitro t1/2=−(0.693)/k.
# [2] = Metabolic stability in mouse liver microsomes (in vitro t1/2); type: in vitro ADME; settings: for half-life at 2 µM: mouse liver microsomes 0.5 mg/mL, 2 μM compound, read-out: Mouse microsome t1/2, min; for Mouse microsome % 60 min: mouse liver microsomes
# Procedure: as §1
# MCT4 = MCT4 (Homo sapiens (Human), UniProt O15427); test: Assay 3: MCT4-mediated lactate transport in MDA-MB-231 breast cancer cells; type: cell-based
# Procedure, shortened: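 Read-out is BCECF fluorescence tracking the intracellular pH shift from MCT4-mediated lactate/H+ co-transport. Before measurement, MDA-MB-231 cells take up BCECF-AM for 5 min at 37° C, then are washed into Tyrode's Solution, pH 7.4.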
# MCT1 = MCT1 (Homo sapiens (Human), UniProt P53985); test: Assay 4: MCT1-mediated lactate transport in BT20 breast cancer cells; type: cell-based; settings: Table 27
# Procedure, shortened: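 Transport started with 10 mM L-lactate on BCECF-loaded BT20 cells in Tyrode's Solution, pH 7.4. Dye loading: BCECF-AM ester (30 mM DMSO stock), 5 min at 37° C, then one wash.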
# [3] = MDA-MB-231 cells, lactate transport
# Chain of MCT1 (P53985 whole entry): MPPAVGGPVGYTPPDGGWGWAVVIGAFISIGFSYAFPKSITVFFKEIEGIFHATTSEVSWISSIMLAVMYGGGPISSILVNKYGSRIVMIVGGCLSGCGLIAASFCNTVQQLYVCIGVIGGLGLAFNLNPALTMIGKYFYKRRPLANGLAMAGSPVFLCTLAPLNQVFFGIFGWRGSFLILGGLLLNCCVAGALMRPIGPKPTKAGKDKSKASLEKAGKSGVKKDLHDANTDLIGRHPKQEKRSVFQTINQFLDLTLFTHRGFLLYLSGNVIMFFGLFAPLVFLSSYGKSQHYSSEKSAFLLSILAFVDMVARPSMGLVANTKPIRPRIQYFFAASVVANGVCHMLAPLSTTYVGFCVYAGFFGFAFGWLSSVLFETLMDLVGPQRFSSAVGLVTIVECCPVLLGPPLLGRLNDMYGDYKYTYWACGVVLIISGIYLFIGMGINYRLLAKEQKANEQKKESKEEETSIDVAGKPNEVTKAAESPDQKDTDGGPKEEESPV
# Chain of MCT1 (P35613 140-385 partner): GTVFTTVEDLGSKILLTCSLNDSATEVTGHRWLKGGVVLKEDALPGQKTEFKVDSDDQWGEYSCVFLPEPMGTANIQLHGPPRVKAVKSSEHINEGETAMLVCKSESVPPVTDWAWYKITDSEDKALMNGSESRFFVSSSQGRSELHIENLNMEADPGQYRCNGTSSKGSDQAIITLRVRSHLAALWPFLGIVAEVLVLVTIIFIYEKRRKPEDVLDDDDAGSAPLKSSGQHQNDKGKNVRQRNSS
# Chain of MCT4 (O15427 whole entry, looked up): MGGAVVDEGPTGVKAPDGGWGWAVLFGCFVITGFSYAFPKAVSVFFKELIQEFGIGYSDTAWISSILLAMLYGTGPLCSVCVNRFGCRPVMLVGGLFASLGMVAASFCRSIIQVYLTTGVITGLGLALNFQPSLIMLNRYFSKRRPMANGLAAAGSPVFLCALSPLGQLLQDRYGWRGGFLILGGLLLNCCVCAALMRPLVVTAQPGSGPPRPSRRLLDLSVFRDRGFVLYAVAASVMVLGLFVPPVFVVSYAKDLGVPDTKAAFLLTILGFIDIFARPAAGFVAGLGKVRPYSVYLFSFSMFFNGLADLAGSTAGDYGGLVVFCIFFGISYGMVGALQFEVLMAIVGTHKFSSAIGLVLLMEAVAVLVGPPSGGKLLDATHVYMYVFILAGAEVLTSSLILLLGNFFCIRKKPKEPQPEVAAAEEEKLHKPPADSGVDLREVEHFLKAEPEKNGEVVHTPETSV
# Chain of MCT4 (P35613 whole entry partner, looked up): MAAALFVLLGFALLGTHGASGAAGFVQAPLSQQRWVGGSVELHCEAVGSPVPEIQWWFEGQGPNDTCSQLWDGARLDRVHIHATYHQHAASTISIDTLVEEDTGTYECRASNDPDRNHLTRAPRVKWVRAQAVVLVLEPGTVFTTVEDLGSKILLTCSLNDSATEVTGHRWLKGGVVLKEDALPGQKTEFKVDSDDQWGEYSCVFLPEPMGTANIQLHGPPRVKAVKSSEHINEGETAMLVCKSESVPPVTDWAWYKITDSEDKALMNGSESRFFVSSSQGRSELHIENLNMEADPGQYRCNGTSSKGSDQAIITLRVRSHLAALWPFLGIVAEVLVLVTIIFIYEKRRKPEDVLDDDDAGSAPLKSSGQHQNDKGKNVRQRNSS
Structure (SMILES),IC50 (MCT4; [3]),IC50 (MCT1),also measured
"CC(C)COc1cccc(-c2cc(COC(C)(C)C(=O)O)nn2Cc2ccccc2Cl)c1 [Example 27, 2-([1-[(2-Chlorophenyl)methyl]-5-(3-(2-methyl-propoxy)phenyl)1H-pyrazol-3-yl]methoxy)-2-methylpropanoic acid]",–,–,half-life at 2 µM [1]: 0.833 h; Human microsome % 60 min [1]: 43%; half-life at 2 µM [2]: 1.02 h; Mouse microsome % 60 min [2]: 50%
"CC(C)Oc1cccc(-c2cc(COC(C)(C)C(=O)O)nn2Cc2ccccc2Cl)c1 [Example 35, 2-([1-[(2-Chlorophenyl)methyl]-5-(3-isopropoxyphenyl)1H-pyrazol-3-yl]methoxy)-2-methylpropanoic acid]",–,–,half-life at 2 µM [1]: 1.92 h; Human microsome % 60 min [1]: 67%; half-life at 2 µM [2]: 0.583 h; Mouse microsome % 60 min [2]: 31%
"COc1cccc(-c2cc(COC(C)(C)C(=O)O)nn2Cc2ccccc2OC)c1 [Example 36, 2-([5-(3-Methoxyphenyl)-1-[(2-methoxyphenyl)methyl]1H-pyrazol-3-yl]methoxy)-2-methylpropanoic acid]",–,–,half-life at 2 µM [1]: 4.83 h; Human microsome % 60 min [1]: 85%; half-life at 2 µM [2]: 20 h; Mouse microsome % 60 min [2]: 99%
"COc1cccc(-c2cc(COC(C)(C)C(=O)O)nn2Cc2ccccc2N(C)C)c1 [Example 38, 2-([1-[(2-(Dimethylamino)phenyl]methyl]-5-(3-methoxyphenyl)1H-pyrazol-3-yl]methoxy)-2-methylpropanoic acid]",–,–,half-life at 2 µM [1]: 1.27 h; Human microsome % 60 min [1]: 56%; half-life at 2 µM [2]: 1.32 h; Mouse microsome % 60 min [2]: 61%
"COc1cc(OC)cc(-c2cc(COC(C)(C)C(=O)O)nn2-c2ccccc2N2CCCC2)c1 [Example 231, 2-([5-(3,5-Dimethoxyphenyl)-1-[2-(pyrrolidin-1-yl)phenyl]-1H-pyrazol-3-yl]-methoxy)-2-methylpropanoic acid]",4.5 nM,63000 nM,–
"CC(C)(OCc1cc(-c2cccc(OC3CC3)c2)n(-c2ccccc2N2CC[C@H](O)C2)n1)C(=O)O [Example 233, 2-([5-(3-Cyclopropoxyphenyl)-1-[2-[(3S)-3-hydroxypyrrolidin-1-yl]phenyl]-1H-pyrazol-3-yl]methoxy)-2-methylpropanoic acid]",700 nM,> 100000 nM,–
"CC(C)(OCc1cc(-c2cccc(OC3CC3)c2)n(-c2ccccc2N2CCCC2=O)n1)C(=O)O [Example 235, 2-([5-(3-Cyclopropoxyphenyl)-1-(2-(2-oxopyrrolidin-1-yl)phenyl]-1H-pyrazol-3-yl]methoxy)-2-methylpropanoic acid]",> 30000 nM,> 100000 nM,–
"CC(C)(OCc1cc(-c2cccc(OC3CC3)c2)n(-c2ccccc2-n2cccn2)n1)C(=O)O [Example 236, 2-([5-(3-Cyclopropoxyphenyl)-1-[2-(1H-pyrazol-1-yl)phenyl]-1H-pyrazol-3-yl]-methoxy)-2-methylpropanoic acid]",170 nM,> 100000 nM,–
"CC(C)(OCc1cc(-c2cccc(OC3CCC3)c2)n(Cc2ccccc2N2CCCC2)n1)C(=O)O [Example 238, 2-([5-(3-Cyclobutoxyphenyl)-1-[[2-(pyrrolidin-1-yl)phenyl]methyl]-1H-pyrazol-3-yl]methoxy)-2-methylpropanoic acid]",3.7 nM,21000 nM,–
"CC(C)(OCc1cc(-c2cccc(OC3CC3)c2)n(-c2ccccc2C#N)n1)C(=O)O [Example 239, 2-([1-(2-Cyanophenyl)-5-(3-cyclopropoxy-phenyl)-1H-pyrazol-3-yl)methoxy)-2-methylpropanoic acid]",–,> 100000 nM,IC50 (MCT4): 150 nM
"COc1cc(OC)cc(-c2cc(COC(C)(C)C(=O)O)nn2-c2ccccc2N(C)C)c1 [Example 245, 2-([5-(3,5-Dimethoxyphenyl)-1-[2-(dimethylamino)phenyl)-1H-pyrazol-3-yl]-methoxy)-2-methylpropanoic acid]",7.6 nM,77000 nM,–
"CCOc1cccc(F)c1Cn1nc(COC(C)(C)C(=O)O)cc1-c1cc(OC)cc(OC)c1 [Example 252, 2-([5-(3,5-Dimethoxyphenyl)-1-[(2-ethoxy-6-fluorophenyl)methyl]-1H-pyrazol-3-yl]methoxy)-2-methylpropanoic acid]",25 nM,43000 nM,–
"CC(C)(C)COc1cccc(-c2cc(COC(C)(C)C(=O)O)nn2-c2cccc3cccnc23)c1 [Example 253, 2-([5-[3-(2,2-Dimethylpropoxy)phenyl]-1-(quinolin-8-yl)-1H-pyrazol-3-yl]methoxy)-2-methylpropanoic acid]",19 nM,55000 nM,–
"COc1cc(OC)cc(-c2cc(COC(C)(C)C(=O)O)nn2Cc2ccccn2)c1 [Example 254, 2-([5-(3,5-Dimethoxyphenyl)-1-([pyridin-2-yl]methyl)-1H-pyrazol-3-yl]methoxy)-2-methylpropanoic acid]",285 nM,> 100000 nM,–
"Cn1nnc2cccc(-n3nc(COC(C)(C)C(=O)O)cc3-c3cccc(OCC(C)(C)C)c3)c21 [Example 258, 2-([5-[3-(2,2-Dimethylpropoxy)phenyl]-1-(1-methyl-1H-1,2,3-benzotriazol-7-yl)-1H-pyrazol-3-yl)methoxy)-2-methylpropanoic acid]",12 nM,27000 nM,–
"CCn1ncc2ccc(-c3cc(COC(C)(C)C(=O)O)nn3Cc3ccccn3)cc21 [Example 259, 2-([5-(1-Ethyl-1H-indazol-6-yl)-1-([pyridin-2-yl]methyl)-1H-pyrazol-3-yl]methoxy)-2-methylpropanoic acid]",850 nM,> 100000 nM,–
CCn1nnc2ccc(-c3cc(COC(C)(C)C(=O)O)nn3Cc3ccccc3Cl)cc21 [Example 261],17 nM,43000 nM,–
"CC[C@@](C)(OCc1cc(-c2cccc(OC3CC3)c2)n(-c2ccccc2Cl)n1)C(=O)O [Example 262, (2R)-2-([1-(2-Chlorophenyl)-5-(3-cyclopropoxyphenyl)-1H-pyrazol-3-yl]methoxy)-2-methylbutanoic acid]",9.1 nM,7900 nM,–
"CC[C@@](C)(OCc1cc(-c2cccc(OCC(C)C)c2)n(-c2cccc3cnn(C)c23)n1)C(=O)O [Example 263, (2R)-2-Methyl-2-([1-(1-methyl-1H-indazol-7-yl)-5-[3-(2-methylpropoxy)phenyl]-1H-pyrazol-3-yl]methoxy]butanoic acid]",2.2 nM,16000 nM,–
"Cc1nn(C)c2sc(-c3cc(COC(C)(C)C(=O)O)nn3Cc3ccccc3Cl)cc12 [Example 265, 2-([1-[(2-Chlorophenyl)methyl]-5-[1,3-dimethyl-1H-thieno[2,3-c]pyrazol-5-yl]-1H-pyrazol-3-yl)methoxy)-2-methylpropanoic acid]",5.6 nM,84000 nM,–

# The next lines start with results.
IC50 (MCT4; [3]),IC50 (MCT1),Structure (SMILES),also measured
8.1 nM,92000 nM,"Cn1ncc2ccc(-c3cc(COC(C)(C)C(=O)O)nn3-c3ccccc3N3CCCC3)cc21 [Example 230, 2-Methyl-2-([5-(1-methyl-1H-indazol-6-yl)-1-[2-(pyrrolidin-1-yl)phenyl]-1H-pyrazol-3-yl]methoxy]propanoic acid]",–
960 nM,70000 nM,"CC(C)(OCc1cc(-c2cccc(OC3CC3)c2)n(-c2ccccc2N2CCOCC2)n1)C(=O)O [Example 234, 2-([5-(3-Cyclopropoxyphenyl)-1-[2-(morpholin-4-yl)phenyl]-1H-pyrazol-3-yl]-methoxy)-2-methylpropanoic acid]",–
160 nM,> 100000 nM,"CC(C)(OCc1cc(-c2cccc(OC3CC3)c2)n(-c2ccccc2N2CC[C@@H](O)C2)n1)C(=O)O [Example 237, 2-([5-(3-Cyclopropoxyphenyl)-1-[2-[(3R)-3-hydroxypyrrolidin-1-yl]phenyl]-1H-pyrazol-3-yl]methoxy)-2-methylpropanoic acid]",–
23 nM,> 100000 nM,"CC(C)COc1cccc(-c2cc(COC(C)(C)C(=O)O)nn2Cc2ccccn2)c1 [Example 247, 2-Methyl-2-([5-[3-(2-methylpropoxy)-phenyl]-1-([pyridin-2-yl]methyl)-1H-pyrazol-3-yl]methoxy)propanoic acid]",–
39 nM,> 100000 nM,"COc1cc(OC)cc(-c2cc(COC(C)(C)C(=O)O)nn2-c2cccc3cnn(C)c23)c1 [Example 249, 2-([5-(3,5-Dimethoxyphenyl)-1-(1-methyl-1H-indazol-7-yl)-1H-pyrazol-3-yl]methoxy)-2-methylpropanoic acid]",–
2.6 nM,17000 nM,"Cn1ncc2cccc(Cn3nc(COC(C)(C)C(=O)O)cc3-c3cccc(OCC(C)(C)C)c3)c21 [Example 256, 2-([5-[3-(2,2-Dimethylpropoxy)phenyl]-1-[(1-methyl-1H-indazol-7-yl)methyl]-1H-pyrazol-3-yl]methoxy)-2-methylpropanoic acid]",–
